From patent publication US7342034B2, “Fused heterocyclic compounds and analogs thereof, modulators of nuclear hormone receptor function” (Bristol-Myers Squibb Company, priority 2001, dated 2008)
Like-named read-outs stand apart in the source and are kept apart here.

Columns and labels:
wild type AR = details: read-out: Kd for [^3H]-DHT; MDA 453 cells, saturation analysis, Scatchard
Protocol: For the saturation analysis, the difference between the total binding and the non-specific binding, was defined as specific binding.
Two replicates were used for each sample. After 4 hours at 37° C., cells were washed, harvested and counted as described above. […] The KI, values were determined by application of the Cheng-Prusoff equation to the IC50 values, where:
[formula] After correcting for non-specific binding, IC50 values were determined. […]

AR [1] = target: T1, AR (Rattus norvegicus, UniProt P15207)
T1 sequence (P15207 1-902): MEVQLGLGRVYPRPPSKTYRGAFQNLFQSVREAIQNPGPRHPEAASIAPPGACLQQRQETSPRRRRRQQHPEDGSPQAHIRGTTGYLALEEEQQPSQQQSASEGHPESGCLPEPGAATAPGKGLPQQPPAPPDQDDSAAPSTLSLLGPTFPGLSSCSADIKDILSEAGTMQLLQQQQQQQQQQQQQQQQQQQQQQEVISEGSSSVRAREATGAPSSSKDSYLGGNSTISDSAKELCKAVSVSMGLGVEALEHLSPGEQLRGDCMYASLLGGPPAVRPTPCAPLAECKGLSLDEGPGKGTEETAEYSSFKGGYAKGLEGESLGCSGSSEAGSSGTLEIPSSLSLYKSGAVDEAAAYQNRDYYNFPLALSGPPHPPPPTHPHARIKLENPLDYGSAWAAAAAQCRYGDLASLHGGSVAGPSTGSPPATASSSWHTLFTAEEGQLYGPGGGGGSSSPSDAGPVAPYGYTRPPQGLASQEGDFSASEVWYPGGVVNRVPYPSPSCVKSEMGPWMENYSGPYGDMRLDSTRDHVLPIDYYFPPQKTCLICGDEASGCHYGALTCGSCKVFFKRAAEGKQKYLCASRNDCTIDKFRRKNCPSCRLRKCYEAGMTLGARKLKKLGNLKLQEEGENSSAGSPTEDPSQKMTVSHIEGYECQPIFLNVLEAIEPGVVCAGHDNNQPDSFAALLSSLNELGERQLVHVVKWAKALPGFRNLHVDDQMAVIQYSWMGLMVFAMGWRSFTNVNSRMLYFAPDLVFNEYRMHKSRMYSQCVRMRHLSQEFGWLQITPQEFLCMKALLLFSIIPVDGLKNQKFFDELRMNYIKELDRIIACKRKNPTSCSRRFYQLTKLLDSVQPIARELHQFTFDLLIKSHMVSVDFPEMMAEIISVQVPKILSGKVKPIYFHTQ

AR [2] = target: T1, AR; details: castrated rats
Source text: The activity of compounds of the present invention as AR agonists was investigated in an immature male rat model, a recognized test of anabolic effects in muscle and sustaining effects in sex organs for a given compound, as described in L. G. Hershberger et al., Proc. Soc. […] Yak. Ken. Nem.
The basis of this assay lies in the well-defined action of androgenic agents on the maintenance and growth of muscle tissues and sexual accessory organs in animals and man. […] J. Anat. […] Ital. Biol. Sper. […] II. […] Ital. Biol. Sper. […] As described above, the effects of androgens on maintenance of male sexual accessory organs, such as the prostate and seminal vesicles, is well described. Castration results in rapid involution and atrophy of the prostate and seminal vesicles. This effect can be reversed by exogenous addition of androgens. Since both the levator ani muscle and the male sex organs are the tissues most responsive to the effects of androgenic agents, this model is used to determine the androgen dependent reversal of atrophy in the levator ani muscle and the sex accessory organs in immature castrated rats. Sexually mature rats (200-250 g, 6-8 weeks-old, Sprague-Dawley, Harlan) were acquired castrated from the vendor (Taconic). The rats were divided into groups and treated daily for 7 to 14 days with one of the following: • 1. Control vehicle • 2. […]

| Compound | Kd (wild type AR) [pM] | ED80 (AR [1]; immature castrated rat model) [mg] | EC50 (increase in organ weight) (AR [1]; immature castrated rats, 3 days dosing) [mg] | higher potency than free T (AR [1]; organ weight increase, immature castrated rats) | EC50 (increase in organ weight) (AR [2]; 3 days dosing) [mg] | higher potency than free T (AR [2]; organ weight increase) |
| --- | --- | --- | --- | --- | --- | --- |
| tritiated dihydrotestosterone [[^3H]-DHT] | 700 | – | – | – | – | – |
| CCC(=O)O[C@H]1CC[C@H]2[C@@H]3CCC4=CC(=O)CC[C@]4(C)[C@H]3CC[C@]12C [TP, testosterone propionate] | – | 0.1 | ~0.03 | 10-30 fold | ~0.03 | 10-30 fold |
